The nature of data set [1]: DTPA solubility in EtOH/PG as a function of ETA/DTPA molar ratio. It counts as physicochemical.
A short description of data set [2]: Octreotide stability in lipid formulations (assay by gradient HPLC-UV after storage). The note with it: for effect on octreotide stability compared to the reference formulation (FIG. 7): alkylamine used to solubilize 100 ppm EDTA, alkylamine:EDTA 4:1; for effect on octreotide stability compared to the reference formulation (FIG. 7) / effect on OCT(Cl) stability vs. the reference formulation (FIG. 6): up to two months; for effect on OCT(Cl) stability vs. the reference formulation (FIG. 6): additive mixtures in EtOH/PG filtered to remove non-dissolved particles, 5 ppm Fe3+.

The conditions of data set [3]: placebo SPC/GDO 50/50 and 35/65 with EtOH; 100 ppm EDTA; with or without 5 ppm Fe3+; 60° C./ambient RH and 40° C./75% RH. On the procedure: Oxygen concentration in the vial headspace was measured using a PC-controlled PreSens Microx TX3 micro fiber optic oxygen transmitter equipped with a needle-type optical oxygen microsensor (NTH, 140 μm flat broken tip). Measurements were performed by penetrating the oxygen microsensor through the vial rubber stopper into the vial headspace and measuring the oxygen concentration until a stable readout was obtained (about 1 min).
Some formulations also contained 5 ppm Fe^3+ to enhance the oxidative stress conditions (Table 10).

For data set [4] the following is noted: 2.00 wt % SOM(Cl) in SPC/GDO/EtOH/PG; 100 ppm EDTA with ETA; 40° C./75% RH and 25° C./60% RH, up to three months.
The conditions of data set [5]: cited from earlier work.
A further data set has as its system SSTR1-SSTRS. Conditions: cited from earlier work.
The conditions of data set [6]: single subcutaneous dose, human plasma; cited from earlier work.
The conditions of data set [7]: 0.38 wt % EDTA in EtOH/PG (1/1 wt/wt).

Numbered stars: 1 amine (or outer) side, 2 acyl side, 3 side chain; on linkers, the order of the positions; unused ones are H or OH. Square brackets hold non-standard residues; d marks the D form. Side chains are listed from the residue outwards. Peptide text beside a SMILES is read from it. * marks the point of attachment. Ethylenediamine = C(CN[*:2])N[*:1]; Hyp = O=C(O)[C@@H]1C[C@@H](O)CN1; Phg = N[C@H](C(=O)O)c1ccccc1; CO = O=C([*:1])[*:2]; Bn = c1ccc(C*)cc1

The source of these data is patent US12257282B2, “Mixtures and formulations” (CAMURUS AB, priority 2016, dated 2025).

Regarding `O=C(O)CN(CCN(CC(=O)O)CC(=O)O)CCN(CC(=O)O)CC(=O)O` [DTPA, Diethylenetriaminepentaacetic (pentetic) acid], the “DTPA solubility in EtOH/PG without using ETA” value in data set [1] (0.08 wt % DTPA) is “not soluble”. Moreover, the “required minimum amount of ETA needed to solubilize DTPA” value in data set [1] (0.08 wt % DTPA in EtOH/PG (50/50 w/w)) is recorded as “about 4.3 mol of ETA per 1 mol of DTPA”.

Consider `OCCNCCO` [DiETA, Diethanolamine], for which the “effect on octreotide stability compared to the reference formulation (FIG. 7)” value in data set [2] (40° C./75% RH) is “enhanced the peptide stability to a similar high degree”.

Take `O.O.O=C(O)CN(CCN(CC(=O)O)CC(=O)O)CC(=O)O.[Na].[Na]` [EDTA(Na), Ethylenediaminetetraacetic acid disodium dihydrate]: the “effect on OCT(Cl) stability vs. the reference formulation (FIG. 6)” value in data set [2] (40° C./75% RH) is “negative effect”.

As to `O=C(O)CN(CCN(CC(=O)O)CC(=O)O)CC(=O)O` [EDTA, Ethylenediaminetetraacetic (edetic) acid], the “effect on consumption of headspace oxygen (lipid oxidation, FIG. 15-18)” value in data set [3] was “drastically reduce consumption of oxygen”. For the same compound, in data set [4], the “effect on SOM stability (SOM assay, FIG. 9)” value is on record as “dramatically enhanced the peptide stability”. For the same compound, in data set [2] (2.27 wt % OCT(Cl) in SPC/GDO/EtOH/PG, 0-750 ppm EDTA with ETA, 40° C./75% RH, 0, 1, 2 months, air headspace), the “effect on octreotide stability vs. reference formulation (FIG. 2)” value is given as “dramatically enhanced the peptide stability”. The “EDTA concentration interval of maximum stabilization effect” value in data set [2] (2.27 wt % OCT(Cl) in SPC/GDO/EtOH/PG, 40° C./75% RH) is listed as 50-250 ppm. Also, the “effect on octreotide stability (octreotide assay, FIG. 1)” value in data set [2] (2.34 wt % OCT(Cl) in SPC/GDO/EtOH/PG, 100 ppm EDTA with 100 ppm ETA vs none, […], up to three months, air headspace) is “dramatically enhanced the peptide stability”. Further, the “effect on long-term octreotide stability (FIG. 3)” value in data set [2] (100 ppm EDTA with ETA, pre-filled glass syringes, 25° C./60% RH, up to twelve months) is “significantly enhanced the long-term peptide stability”. In data set [2] (40° C./75% RH), the “effect on OCT(Cl) stability vs. the reference formulation (FIG. 6)” value was “negative effect”.

As for `NCCO` [ETA, Ethanolamine], the “effect on octreotide stability compared to the reference formulation (FIG. 7)” value in data set [2] (40° C./75% RH) is on record as “enhanced the peptide stability to a similar high degree”.

For `C[C@@H](O)[C@@H]1NC(=O)[C@H](CCCCN)NC(=O)[C@@H](Cc2c[nH]c3ccccc23)NC(=O)[C@H](Cc2ccccc2)NC(=O)[C@@H](NC(=O)[C@H](N)Cc2ccccc2)CSSC[C@@H](C(=O)N[C@H](CO)[C@@H](C)O)NC1=O` [Octreotide, D-Phe-Cys-Phe-D-Trp-Lys-Thr-Cys-Thr-ol (2-7 disulphide bridge)], in data set [5] (in vivo), the terminal half-life result is “around 1.7 hours”. Also, the “selectivity for SSTR2 and SSTRS” value in the data set on SSTR1-SSTRS is “high selectivity”.

As for `NCCCC[C@@H]1NC(=O)[C@@H](Cc2c[nH]c3ccccc23)NC(=O)[C@H](c2ccccc2)NC(=O)[C@@H]2C[C@@H](OC(=O)NCCN)CN2C(=O)[C@H](Cc2ccccc2)NC(=O)[C@H](Cc2ccc(OCc3ccccc3)cc2)NC1=O` [pasireotide] (cyclo([Hyp]([CO-Ethylenediamine])[Phg][dW]KY(Bn)F)), the “initial half-life following the peak” value in data set [6] is 2 to 3 h.

Take `NC(CO)CO` [serinol]: in data set [7], the “required minimum amount of alkylamine needed to solubilize EDTA” value was “about 4 mol per 1 mol of EDTA”.

Turning to “Ala-Gly-Cys-Lys-Asn-Phe-Phe-Trp-Lys-Thr-Phe-Thr-Ser-Cys [SST-14]”, the biological half-life in data set [5] (natural SST-14) was 1-3 minutes. The “affinity of the five SSTR types” value in the data set on SSTR1-SSTRS (SSTR1-SSTRS) is recorded as “equally high affinity”.
